Patent EP2281824A1, “Furan-imidazolone derivatives, for the treatment of cognitive, neurodegenerative or neuronal diseases or disorders” (NOSCIRA, S.A., priority 2009, dated 2011)

Legend:
[1] = biological target: T1, BACE-1 β-Secretase recombinant human enzyme (Homo sapiens, UniProt P56817); test: BACE assay (time-resolved fluorescence, TruPoint BACE1 substrate); type: biochemical; settings: 200 nM peptide substrate, 8 nM enzyme, sodium acetate pH 4.5, 1 h at room temperature; read-out: IC50 Inhibition of BACE Activity
T1 construct: purchased R&D Systems
Method: This assay is based on time-resolved fluorescence ("TRF") technology, using a. BACE peptide substrate containing a fluorescent europium chelate coupled to one end and a quencher coupled to the other end. […] The reagents which are used in this assay are BACE-1 β-Secretase recombinant human enzyme (R&D Systems, Minneapolis, MN), TruPoint™ BACE1 substrate (Perkin Elmer Waltham, MA), sodium acetate, CHAPS and EDTA (Sigma Aldrich, St Louis, MO). The assay is carried out in a 96-well microplate in a final volume of 100 µl using 200 nM peptide substrate and 8 nM enzyme in 50 mM sodium acetate pH 4.5 with 1 mM EDTA and 0.2% (w/v) CHAPS. The plates are incubated for 1 h in the dark at room temperature and then read in a fluorimeter plate reader provided with time-resolved fluorescence capabilities (PolarStar Optima™, BMG-Labtech, Offenburg, Germany) using 337 nm as excitation wavelength and 615 nm as the emission wavelength. Compounds are tested in duplicate using a concentration range extending from 5 nM to 100 µM, using 10 µM H-4848 (commercial BACE inhibitor, BACHEM, Bubendorf, Switzerland) as control.
The compounds of formula (I) of the present invention where submitted to the above indicated assay, in order to determine their BACE activity inhibition. The results, indicated in IC50 format, are indicated below in Table I. IC50 is the half maximal inhibitory concentration, which is a measure of the effectiveness of a compound in inhibiting biological or biochemical function. This quantitative measure indicates the concentration of a particular substance is needed to inhibit a given biological process by half. In other words, it is the half maximal (50%) inhibitory concentration (IC) of a substance.

Aβ secretion = test: Inhibition of beta-amyloid secretion (Aβ1-40 ELISA of cell culture supernatants); type: cell-based; settings: CHO-7W; CHO7w cell line stably transfected with human BACE, 48 hours, Aβ (1-40) in supernatants
Method: To quantify human Aβ1-40 an ELISA-based commercial kit was used (Immunoassay Kit Human β Amyloid 1-40, The Genetics Company, Schlieren, Switzerland). Aβ (1-40) peptide was quantified from cell culture supernatants using a CHO7w cell line stably transfected with human BACE. β-Secretase inhibitor IV (Calbiochem, San Diego, CA), was used as Aβ secretion reduction positive control in all the Aβ secretion studies. Cells were grown in DMEM supplemented with 2% Foetal bovine serum, 1% penicillin-streptomycin, 1% L-glutamine and 200 µg/ml G418. Cells were seeded in 96-well culture microplates at 5000 cells/well and treated with 10 µM β secretase inhibitor IV or compounds for 48 hours. Then cell culture supernatants were collected and analyzed according to the kit manufacturer's instructions. At 10 µM β-secretase inhibitor IV the inhibition of Aβ secretion inhibition is usually between 70 and 100 %.
Some of the compounds of formula (I) of the present invention where submitted to the above indicated assay, in order to determine their capacity of inhibiting Aβ secretion. The results, indicated in IC50 format, are indicated below in Table I. Table I

T1 sequence (P56817 46-501): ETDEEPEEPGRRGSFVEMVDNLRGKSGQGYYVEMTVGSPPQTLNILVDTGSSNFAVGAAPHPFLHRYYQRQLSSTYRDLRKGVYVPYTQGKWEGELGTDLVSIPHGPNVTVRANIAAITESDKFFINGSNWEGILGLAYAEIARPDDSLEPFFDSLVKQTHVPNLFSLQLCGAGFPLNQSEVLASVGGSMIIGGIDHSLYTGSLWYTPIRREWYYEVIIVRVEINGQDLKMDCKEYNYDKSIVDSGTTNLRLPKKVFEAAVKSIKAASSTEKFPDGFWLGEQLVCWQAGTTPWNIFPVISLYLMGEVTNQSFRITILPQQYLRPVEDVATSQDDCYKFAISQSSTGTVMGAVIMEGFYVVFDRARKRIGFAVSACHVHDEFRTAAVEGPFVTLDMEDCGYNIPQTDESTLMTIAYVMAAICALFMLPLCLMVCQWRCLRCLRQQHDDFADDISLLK

SMILES | IC50 [1] [µM] | IC50 (Aβ secretion) [µM]
NC1=NC(=Cc2ccc(-c3ccc([N+](=O)[O-])cc3)o2)C(=O)N1 [Compound 1, 2-amino-5-[5-(4-nitro-phenyl)-furan-2-ylmethylene]-3,5 dihydro-imidazol-4-one] | 0.11 | –
COc1ccc(-c2ccc(C=C3N=C(N)N(C)C3=O)o2)cc1Cl [Compound 2, 2-amino-S-[S-(3-chloro-4-methoxy-phenyl)-furan-2-ylmethylene]-3-methyl-3,5-dihydro-imidazol-4-one] | 0.326 | –
COc1ccc(-c2ccc(C=C3N=C(N)NC3=O)o2)c(OC)c1 [Compound 3, 2-amino-5-[5-(2,4-dimethoxy-phenyl)-furan-2-ylmethylene]-3,5-dihydro-imidazol-4-one] | 0.369 | –
NC1=NC(=Cc2ccc(-c3ccc4c(c3)OCO4)o2)C(=O)N1 [Compound 4, 2-amino-5-(5-benzo[1,3]dioxol-5-yl-furan-2-ylmethylene)-3,5-dihydro-imidazol-4-one] | 0.25 | 30
COc1ncccc1-c1ccc(C=C2N=C(N)NC2=O)o1 [Compound 5, 2-amino-5-[5-(2-methoxy-pyridin-3-yl)-furan-2-ylmethylene]-3,5-dihydro-imidazol-4-one] | 0.36 | 40
COc1ncc(-c2ccc(C=C3N=C(N)NC3=O)o2)c(OC)n1 [Compound 6, 2-amino-5-[5-(2,4-dimethoxy-pyrimidin-5-yl)-furan-2-ylmethylene]-3,5-dihydro-imidazol-4-one] | 1.32 | –
Cc1noc(C)c1-c1ccc(C=C2N=C(N)NC2=O)o1 [Compound 7, 2-Amino-5-[5-(3,5-dimethyl-isoxazol-4-yl)-furan-2-ylmethylene]-3,5-dihydro-imidazol-4-one] | 0.39 | –
NC1=NC(=Cc2ccc(-c3ncccn3)o2)C(=O)N1 [Compound 8, 2-amino-5-(5-pyrimidin-2-yl-furan-2-ylmethylene)-3,5-dihydro-imidazol-4-one] | 1.3 | –
COC(=O)c1ccc(OC)c(-c2ccc(C=C3N=C(N)NC3=O)o2)c1 [Compound 9, 3-[5-(2-amino-5-oxo-1,5-dihydro-imidazol-4-ylidenemethyl)-furan-2-yl]-4-methoxy-benzoic acid methyl ester] | 0.711 | 45
COc1ccc(-c2ccc(C=C3N=C(N)NC3=O)o2)cc1Cl [Compound 10, 2-Amino-5-[5-(3-chloro-4-methoxy-phenyl)-furan-2-ylmethylene]-3,5-dihydro-imidazol-4-one] | 0.319 | –
COc1ccc(C#N)cc1-c1ccc(C=C2N=C(N)N(C)C2=O)o1 [Compound 11, 3-[5-(2-Amino-1-methyl-5-oxo-1,5-dihydro-imidazol-4-ylidenemethyl)-furan-2-yl]-4-methoxy-benzonitrile] | 0.22 | –
COc1ccc(-c2ccc(C=C3N=C(N)N(Cc4ccccc4)C3=O)o2)cc1Cl [Compound 12, 2-Amino-3-benzyl-5-[5-(3-chloro-4-methoxy-phenyl)-furan-2-ylmethylene]-3,5-dihydro-imidazol-4-one] | 1.23 | –
COCCN1C(=O)C(=Cc2ccc(-c3ccc(OC)c(Cl)c3)o2)N=C1N [Compound 13, 2-Amino-5-[5-(3-chloro-4-methoxy-phenyl)-furan-2-ylmethylene]-3-(2-methoxy-ethyl)-3,5-dihydro-imidazol-4-one] | 0.81 | –
COc1ncccc1-c1ccc(C=C2N=C(N)N(C)C2=O)o1 [Compound 14, 2-Amino-5-[5-(2-methoxy-pyridin-3-yl)-furan-2-ylmethylene]-3-methyl-3,5-dihydro-imidazol-4-one] | 0.54 | –
COc1ccc(-c2ccc(C=C3N=C(N)N(C)C3=O)o2)c(OC)c1 [Compound 15, 2-Amino-5-[5-(2,4-dimethoxy-phenyl)-furan-2-ylmethylene]-3-methyl-3,5-dihydro-imidazol-4-one] | 0.346 | –
Cc1noc(C)c1-c1ccc(C=C2N=C(N)N(C)C2=O)o1 [Compound 16, 2-amino-5-[5-(3,5-dimethyl-isoxazol-4-yl)-furan-2-ylmethylene]-3-methyl-3,5-dihydro-imidazol-4-one] | 1.23 | –
COc1ccc(-c2ccc(C=C3N=C(N)NC3=O)o2)cc1 [Compound 17, 2-Amino-5-[5-(4-methoxy-phenyl)-furan-2-ylmethylene]-3,5-dihydro-imidazol-4-one] | 0.422 | 35
CN1C(=O)C(=Cc2ccc(-c3ccc([N+](=O)[O-])cc3)o2)N=C1N [Compound 18, Acetate 1-methyl-4-[5-(4-nitro-phenyl)-furan-2-ylmethylene]-5-oxo-4,5-dihydro-1H-imidazol-2-yl-ammonium] | 0.4 | –
